Reference: publication PMC9961652 (International Journal of Molecular Sciences, 2023)
Where two headings read alike, the source gives them in different places.

Tests used:
[1] = system: myosin light chain (MLC); test: Phosphorylation of myosin light chain (p-MLC), Western blot in collagen-stimulated platelets; assay type: cell-based, human; conditions: different concentrations of R-G04 or S-G04; collagen 1 µg/mL
Description: (A,B) Washed human platelets were incubated with collagen (1 µg/mL) for 4 min, and the levels of RhoA-GTP formation were quantified with a GST-Rhotekin effector pull-down assay. The platelets were pre-incubated with 20 µM UC-177618, UC-177619, UC-177628, UC-177629, […], or […] for 2 min before being stimulated with collagen. The addition of ice-cold lysis buffer terminated the reaction. […] Relative amounts of the GTP-bound form of RhoA were quantified with densitometry measurements of total RhoA (T-RhoA) and normalized to untreated platelets. […] The samples were processed for Western blotting and probed for MLC and p-MLC, and phosphorylation was quantified by measuring the densitometry of total MLC (T-MLC). The differences between DMSO- and Rhosin-related compounds were analyzed with t-test, and the results are shown as means ± SDs of three independent experiments. […]
A volume of 250 µL of washed human platelets (2.5 × 10^8/mL) was pre-warmed to 37 °C along with the compounds or DMSO (0.1%) for 2 min before being stimulated with collagen (1 µg/mL) for 4 min. The reactions were terminated by adding 4x Laemmli buffer, and phosphorylated MLC protein was detected with Western blotting as previously reported. Phosphorylation was quantified by measuring the densitometry.

[2] = system: washed human platelets; test: Lactate dehydrogenase (LDH) leakage cytotoxicity assay; assay type: cell-based; conditions: 50 µM; compared with positive control Triton X-100
Description: The cytotoxicity of the active analogs was determined with the lactate dehydrogenase (LDH) leakage assay to ensure that platelet inhibition was a consequence of pharmacologic inhibition and not cytotoxicity. LDH is a stable cytosolic marker for membrane perturbation and is present in many cell types, including platelets.
Compound cytotoxicity was assessed using LDH Cytotoxicity Assay Kit (No. 601170; Cayman Chemical, MI) as previously described. Washed human platelets (2.5 × 10^8/mL) were incubated at 37 °C for 10 min with the highest concentration of compounds (50 µM for R-G04 and S-G04, and 20 µM for Rhosin analogs) or the vehicle, dimethyl sulfoxide (DMSO) 0.1% or 10% Triton X-100, which served as the positive control. The platelets were centrifuged at 800× g for 8 min at 4 °C, and 100 µL of the supernatant was mixed with 100 µL of LDH reaction solution in a 96-well plate. The plate was incubated at 37 °C for 10 min under constant orbital shaking before measurement of the absorbance at 490 nm in a plate reader (BioTek Synergy LX multimode reader; Santa Clara, CA, USA).

[3] = system: RhoA; test: RhoA-GTP formation, GST-Rhotekin effector pull-down assay in collagen-stimulated platelets; assay type: cell-based, human; conditions: R-G04 10 µM or 50 µM, S-G04 3 µM or 20 µM; collagen 1 µg/mL
Description: Next, the ability of the six compounds to suppress RhoA activity in platelets was assessed by subjecting them to a GST (Glutathione-S-transferase)-Rhotekin effector pull-down assay. The compounds were incubated with washed human platelets for 2 min before being stimulated with 1 µg/mL collagen. The analogs inhibited the activation of RhoA at the 20 µM concentration (Figure 2A,B). […] After confirming that these analogs could prevent RhoA activation and the phosphorylation of the MLC, their ability to disrupt complex-formation between RhoA and LARG was tested. […] These findings indicate that the active analogs inhibit RhoA activation by disrupting the binding between RhoA and its GEF.
(A,B) Washed human platelets were incubated with collagen (1 µg/mL) for 4 min, and the levels of RhoA-GTP formation were quantified with a GST-Rhotekin effector pull-down assay. The platelets were pre-incubated with 20 µM UC-177618, UC-177619, UC-177628, UC-177629, […], or […] for 2 min before being stimulated with collagen. The addition of ice-cold lysis buffer terminated the reaction. […] Relative amounts of the GTP-bound form of RhoA were quantified with densitometry measurements of total RhoA (T-RhoA) and normalized to untreated platelets. (C,D) The addition of 20 µM of active Rhosin-related compounds to washed human platelets 2 min before stimulation with collagen blocked the phosphorylation of the myosin light chain (p-MLC). The reactions were terminated after 4 min by adding 4x Laemmli sample buffer. The samples were processed for Western blotting and probed for MLC and p-MLC, and phosphorylation was quantified by measuring the densitometry of total MLC (T-MLC). The differences between DMSO- and Rhosin-related compounds were analyzed with t-test, and the results are shown as means ± SDs of three independent experiments. (* p < 0.05, ** p < 0.01, *** p < 0.001, and **** p < 0.0001).
The relative levels of RhoA-GTP in washed human platelets were quantified with effector domains GST-Rhotekin pull-down assays as previously reported. A volume of 250 µL of washed human platelets (2.5 × 10^8/mL) was pre-warmed to 37 °C along with the compounds or DMSO (0.1%) for 2 min before being stimulated with collagen (1 µg/mL). The reactions were terminated 4 min after collagen stimulation by adding ice-cold lysis buffer (20 mM Tris·HCl (pH 7.6), 100 mM NaCl, 1% Triton X-100, 0.2% Sodium Deoxycholate, 10 mM MgCl2, 1 mM dithiothreitol, 1x protease inhibitor cocktail, and 1x phosphatase inhibitor cocktail). The supernatants were collected and subjected to the GST-Rhotekin pull-down assay. The total cell lysates were also blotted in parallel. GTP-bound RhoA was quantitatively detected with Western blotting using an anti-RhoA antibody. The relative amounts of RhoA were quantified with densitometry measurements and normalized to the untreated platelets.

[4] = system: washed human platelets; test: Collagen-induced platelet aggregation, light transmission aggregometry (Born method); assay type: cell-based; conditions: for IC50: collagen 1 µg/mL, dose-response curves, read-out: IC50 (95% CI) of platelet aggregation; for IC50 / activity at 20 µM: washed human platelets; for activity at 20 µM: compound 20 µM, means ± SDs of three experiments, 100% = agonist alone
Description: Light transmission aggregometry, i.e., the Born method, was used to determine in vitro antiplatelet aggregation activity using collagen as the agonist for platelet aggregation. Collagen was selected as the agonist, since it is the most thrombogenic component of the subendothelial layer. Collagen also serves as a substrate for platelet adhesion and as an inducer of platelet activation.
All experiments using human blood from healthy volunteers were performed according to the protocols approved by the Institutional Review Board at Cincinnati Children’s Hospital Medical Center, Cincinnati, Ohio. Each volunteer was required to sign an informed consent form approved by the IRB. Procedures for drawing human blood, isolating platelet-rich plasma (PRP), and preparing washed platelet suspensions were the same as those previously reported. […] PRP was obtained by means of the centrifugation of blood at 1400 rpm for 15 min at room temperature. PRP was centrifuged at 4000 rpm for 10 min at room temperature, and the platelet pellet was resuspended in HEPES Tyrode’s solution (pH 7.4) without calcium. Platelets were counted using Hemavet 950FS (Drew Scientific, Oxford, CT, USA), and the count was adjusted to 2.5 × 10^8/mL for aggregation studies.
The in vitro antiplatelet activity of the compounds was assayed on washed human platelets using light transmission aggregometry. Platelet aggregation was performed using a 4-channel Lumi-aggregometer (Chronolog, PA, USA) at 37 °C and stirring speed of 900 rpm. A volume of 250 µL of washed human platelets (2.5 × 10^8/mL) was pre-warmed to 37 °C along with the compounds or DMSO (0.1%) for 2 min before the addition of agonists such as collagen, AA, U46619 (a stable synthetic analog of thromboxane A2), ADP, and thrombin. For ATP secretion, platelets were pre-incubated with a luciferin/luciferase kit (Chrono-lume®) for 30 s at 37 °C before the addition of the agonist. The reactions were allowed to proceed for at least 4 min, and the results of platelet aggregation and ATP secretion were determined using Aggrolink software. Platelet aggregation was expressed as the maximum change in the light transmission, where the 100% value corresponded to treatment with the agonist alone. Compounds were evaluated in triplicate at nine compound concentrations ranging from 50 µM to 1 µM.

[5] = Platelet, read-out: % Platelet Aggregation, Collagen (1 µg/mL)
[6] = Platelet, read-out: % Platelet Aggregation, Collagen (5 µg/mL)

N[C@H](Cc1c[nH]c2ccccc12)C(=O)N/N=C/c1ccc2nccnc2c1 [R-G04]
phosphorylation of the MLC [1]: inhibited the downstream phosphorylation of the MLC | cytotoxicity, LDH assay [2]: neither R-G04 nor S-G04 induced significant human platelet cytolysis | RhoA-GTP formation [3]: inhibited RhoA-GTP formation in a concentration-dependent manner | IC50 ([4]; Homo sapiens, Platelet): 22.6 µM | activity at 20 µM [4, 5]: 70.3 ± 18.9% | activity at 20 µM [4, 6]: 71.4 ± 15%

N[C@@H](Cc1c[nH]c2ccccc12)C(=O)N/N=C/c1ccc2nccnc2c1 [S-G04]
phosphorylation of the MLC [1]: inhibited the downstream phosphorylation of the MLC | cytotoxicity, LDH assay [2]: neither R-G04 nor S-G04 induced significant human platelet cytolysis | RhoA-GTP formation [3]: inhibited RhoA-GTP formation in a concentration-dependent manner | IC50 ([4]; Homo sapiens, Platelet): 7.8 µM | activity at 20 µM [4, 5]: 9.33 ± 4.93% | activity at 20 µM [4, 6]: 20 ± 5% | IC50 [4]: 7.96 µM | potency of S-G04 relative to R-G04 ([4]; from IC50, collagen 1 µg/mL): three times more potent than R-G04
